Values quoted from earlier work in patent US10654893B2, “Self-assembling peptide compositions” (3-D MATRIX, LTD., priority 2014, dated 2020).

Details: cited from earlier work

SMILES | pKa
N[C@@H](CC(=O)O)C(=O)O [aspartic acid] | 3.71
N[C@@H](CCC(=O)O)C(=O)O [glutamic acid] | 4.15
